Experimental data reported in PubChem BioAssay (NCI).
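Five compound concentrations were applied to cells in 96-well plates for 48 hours; endpoints were derived by simple linear interpolation of the resulting dose-response curve. At the TGI there is no net growth.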

Columns and labels:
Test in all cases: DTP human tumour cell line panel, 48 h
UO-31 renal = test system: UO-31 renal
TK-10 renal = test system: TK-10 renal
SK-OV-3 ovarian = test system: SK-OV-3 ovarian
HOP-62 NSCLC = test system: HOP-62 NSCLC
NCI-H226 lung = test system: NCI-H226 lung
RXF-631 renal = test system: RXF-631 renal
SF-268 CNS = test system: SF-268 CNS
SK-MEL-2 melanoma = test system: SK-MEL-2 melanoma
SN12C renal = test system: SN12C renal
NCI-H522 lung = test system: NCI-H522 lung
XF 498 CNS = test system: XF 498 CNS
SW-620 colon = test system: SW-620 colon
OVCAR-3 ovarian = test system: OVCAR-3 ovarian
SK-MEL-5 melanoma = test system: SK-MEL-5 melanoma
KM20L2 colon = test system: KM20L2 colon
U251 CNS = test system: U251 CNS
LXFL 529 NSCLC = test system: LXFL 529 NSCLC
KM12 colon = test system: KM12 colon
M14 melanoma = test system: M14 melanoma
DLD-1 colon = test system: DLD-1 colon
UACC-62 melanoma = test system: UACC-62 melanoma
SR leukemia = test system: SR leukemia
HT29 colon = test system: HT29 colon
OVCAR-5 ovarian = test system: OVCAR-5 ovarian
M19-MEL melanoma = test system: M19-MEL melanoma
OVCAR-8 ovarian = test system: OVCAR-8 ovarian
K-562 leukemia = test system: K-562 leukemia
UACC-257 melanoma = test system: UACC-257 melanoma
SNB-19 CNS = test system: SNB-19 CNS
DMS 273 small cell lung = test system: DMS 273 small cell lung
SF-539 CNS = test system: SF-539 CNS
786-0 renal = test system: 786-0 renal
DMS 114 small cell lung = test system: DMS 114 small cell lung
HCT-15 colon = test system: HCT-15 colon
NCI-H460 lung = test system: NCI-H460 lung
RPMI-8226 leukemia = test system: RPMI-8226 leukemia
MALME-3M melanoma = test system: MALME-3M melanoma
A549 NSCLC = test system: A549 NSCLC
HCT-116 colon = test system: HCT-116 colon
HCC-2998 colon = test system: HCC-2998 colon
LOX IMVI melanoma = test system: LOX IMVI melanoma
ACHN renal = test system: ACHN renal
CCRF-CEM leukemia = test system: CCRF-CEM leukemia
MOLT-4 leukemia = test system: MOLT-4 leukemia
SNB-75 CNS = test system: SNB-75 CNS
OVCAR-4 ovarian = test system: OVCAR-4 ovarian
NCI-H23 lung = test system: NCI-H23 lung
COLO 205 colon = test system: COLO 205 colon
HL-60(TB) leukemia = test system: HL-60(TB) leukemia
SK-MEL-28 melanoma = test system: SK-MEL-28 melanoma
IGROV1 ovarian = test system: IGROV1 ovarian
HOP-92 NSCLC = test system: HOP-92 NSCLC
CAKI-1 renal = test system: CAKI-1 renal
SF-295 CNS = test system: SF-295 CNS
HOP-18 NSCLC = test system: HOP-18 NSCLC
A498 renal = test system: A498 renal
SNB-78 CNS = test system: SNB-78 CNS
EKVX NSCLC = test system: EKVX NSCLC
RXF 393 renal = test system: RXF 393 renal

## CC12C/C(=C\c3ccccc3)C(=O)C3C1CCCC32
UO-31 renal
  TGI: > 100 µM
TK-10 renal
  TGI: > 100 µM
SK-OV-3 ovarian
  TGI: > 100 µM
HOP-62 NSCLC
  TGI: > 100 µM
NCI-H226 lung
  TGI: > 100 µM
RXF-631 renal
  TGI: > 100 µM
SF-268 CNS
  TGI: > 100 µM
SK-MEL-2 melanoma
  TGI: > 100 µM
SN12C renal
  TGI: > 100 µM
NCI-H522 lung
  TGI: > 100 µM
XF 498 CNS
  TGI: > 100 µM
SW-620 colon
  TGI: > 100 µM
OVCAR-3 ovarian
  TGI: > 100 µM
SK-MEL-5 melanoma
  TGI: > 100 µM
KM20L2 colon
  TGI: > 100 µM
U251 CNS
  TGI: > 100 µM
LXFL 529 NSCLC
  TGI: > 100 µM
KM12 colon
  TGI: > 100 µM
M14 melanoma
  TGI: > 100 µM
DLD-1 colon
  TGI: > 100 µM
UACC-62 melanoma
  TGI: > 100 µM
SR leukemia
  TGI: > 100 µM
HT29 colon
  TGI: > 100 µM
OVCAR-5 ovarian
  TGI: > 100 µM
M19-MEL melanoma
  TGI: > 100 µM
OVCAR-8 ovarian
  TGI: > 100 µM
K-562 leukemia
  TGI: > 100 µM
UACC-257 melanoma
  TGI: > 100 µM
SNB-19 CNS
  TGI: > 100 µM
DMS 273 small cell lung
  TGI: > 100 µM
SF-539 CNS
  TGI: > 100 µM
786-0 renal
  TGI: > 100 µM
DMS 114 small cell lung
  TGI: > 100 µM
HCT-15 colon
  TGI: > 100 µM
NCI-H460 lung
  TGI: > 100 µM
RPMI-8226 leukemia
  TGI: > 100 µM
MALME-3M melanoma
  TGI: > 100 µM
A549 NSCLC
  TGI: > 100 µM
HCT-116 colon
  TGI: > 100 µM
HCC-2998 colon
  TGI: > 100 µM
LOX IMVI melanoma
  TGI: > 100 µM
ACHN renal
  TGI: > 100 µM
CCRF-CEM leukemia
  TGI: > 100 µM
MOLT-4 leukemia
  TGI: 53.1 µM
SNB-75 CNS
  TGI: > 100 µM
OVCAR-4 ovarian
  TGI: > 100 µM
NCI-H23 lung
  TGI: > 100 µM
COLO 205 colon
  TGI: > 100 µM
HL-60(TB) leukemia
  TGI: 55.6 µM
SK-MEL-28 melanoma
  TGI: > 100 µM
IGROV1 ovarian
  TGI: > 100 µM
HOP-92 NSCLC
  TGI: > 100 µM
CAKI-1 renal
  TGI: > 100 µM
SF-295 CNS
  TGI: > 100 µM
HOP-18 NSCLC
  TGI: > 100 µM
A498 renal
  TGI: > 100 µM

## CC(C)CCC1CC2C(=O)N(c3ccccc3)C(=O)C2c2[nH]c3ccccc3c21 (configuration not stated)
UO-31 renal
  TGI: 18.9 µM
TK-10 renal
  TGI: 16.1 µM
SK-OV-3 ovarian
  TGI: 32.2 µM
NCI-H226 lung
  TGI: 12.4 µM
RXF-631 renal
  TGI: 13.8 µM
SF-268 CNS
  TGI: 13.5 µM
SN12C renal
  TGI: 15.4 µM
XF 498 CNS
  TGI: 6.08 µM
SW-620 colon
  TGI: 13.1 µM
OVCAR-3 ovarian
  TGI: 7.63 µM
SK-MEL-5 melanoma
  TGI: 13 µM
U251 CNS
  TGI: 3.5 µM
LXFL 529 NSCLC
  TGI: 20.2 µM
KM12 colon
  TGI: 14.8 µM
M14 melanoma
  TGI: 4.04 µM
DLD-1 colon
  TGI: 15 µM
UACC-62 melanoma
  TGI: 20.9 µM
SR leukemia
  TGI: 23.9 µM
HT29 colon
  TGI: 11 µM
OVCAR-5 ovarian
  TGI: 31.4 µM
M19-MEL melanoma
  TGI: 20 µM
SNB-78 CNS
  TGI: 25.6 µM
OVCAR-8 ovarian
  TGI: 11.7 µM
K-562 leukemia
  TGI: 10.7 µM
SNB-19 CNS
  TGI: 20.6 µM
DMS 273 small cell lung
  TGI: 2.72 µM
SF-539 CNS
  TGI: 10.8 µM
786-0 renal
  TGI: 15.9 µM
DMS 114 small cell lung
  TGI: 2.81 µM
HCT-15 colon
  TGI: 13.4 µM
NCI-H460 lung
  TGI: 12.2 µM
RPMI-8226 leukemia
  TGI: 11.8 µM
EKVX NSCLC
  TGI: 11.6 µM
MALME-3M melanoma
  TGI: 15.1 µM
A549 NSCLC
  TGI: 17.7 µM
HCC-2998 colon
  TGI: 11.2 µM
LOX IMVI melanoma
  TGI: 14.6 µM
ACHN renal
  TGI: 21.5 µM
CCRF-CEM leukemia
  TGI: 16.8 µM
MOLT-4 leukemia
  TGI: 17.3 µM
SNB-75 CNS
  TGI: 9.25 µM
OVCAR-4 ovarian
  TGI: 20.7 µM
NCI-H23 lung
  TGI: 12.9 µM
COLO 205 colon
  TGI: 7.08 µM
HL-60(TB) leukemia
  TGI: 5.73 µM
SK-MEL-28 melanoma
  TGI: 20 µM
IGROV1 ovarian
  TGI: 28.4 µM
SF-295 CNS
  TGI: 2.86 µM
RXF 393 renal
  TGI: 8.01 µM
HOP-18 NSCLC
  TGI: 21.6 µM
A498 renal
  TGI: 16 µM
